Measurements: patent publication US11236055B2 (Venenum Biodesign, LLC, priority 2016, dated 2022)

How the values were obtained:
[1] = target: T1, human TGR5 receptor (Homo sapiens, UniProt Q8TDU6); test: Human TGR5 cAMP production assay; format: cell-based; settings: human TGR5, luminescent cAMP assay; coded A-D; read-out: Human TGR5 Lum. cAMP Activity (EC50)
T1 construct: host or cells: CHO-K1 (hTGR5-CHO cells)
T1 sequence (Q8TDU6 1-330): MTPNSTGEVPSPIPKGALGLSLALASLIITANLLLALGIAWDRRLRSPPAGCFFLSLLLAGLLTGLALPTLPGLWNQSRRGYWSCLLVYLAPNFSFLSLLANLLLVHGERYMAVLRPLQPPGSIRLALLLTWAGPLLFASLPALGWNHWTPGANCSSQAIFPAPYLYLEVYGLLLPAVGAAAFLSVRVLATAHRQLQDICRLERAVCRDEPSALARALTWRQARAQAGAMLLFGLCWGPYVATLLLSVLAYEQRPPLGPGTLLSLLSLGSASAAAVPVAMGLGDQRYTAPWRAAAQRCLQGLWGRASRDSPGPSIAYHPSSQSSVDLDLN
In short: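 CHO-K1 cells stably expressing human TGR5, with IBMX and cAMP antibody, were exposed to half-log serially diluted compound for 1 h at room temperature. cAMP measured by enzyme-fragment complementation luminescence (XS+ kit) after overnight incubation; EC50 values reported.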

[2] = target: T2, mouse TGR5 receptor (Mus musculus, UniProt Q80SS6); test: Mouse TGR5 cAMP production assay (HTRF, Cisbio cAMP HiRange); format: cell-based; settings: HEK293-EBNA cells overexpressing mouse TGR5, HTRF cAMP HiRange; coded A-D
T2 construct: expressed in transfected cells; host or cells: HEK293-EBNA (293 c18, ATCC CRL10852), Hygromycin B selection
T2 sequence (Q80SS6 1-329): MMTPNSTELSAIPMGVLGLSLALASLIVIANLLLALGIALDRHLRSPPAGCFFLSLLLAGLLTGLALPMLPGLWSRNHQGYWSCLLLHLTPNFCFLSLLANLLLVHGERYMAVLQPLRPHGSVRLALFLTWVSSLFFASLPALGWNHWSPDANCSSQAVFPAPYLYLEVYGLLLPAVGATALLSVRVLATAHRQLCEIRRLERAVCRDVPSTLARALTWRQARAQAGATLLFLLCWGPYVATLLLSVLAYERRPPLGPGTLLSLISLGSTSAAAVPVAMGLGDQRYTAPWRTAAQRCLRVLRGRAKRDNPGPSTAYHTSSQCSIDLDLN
In short: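 cAMP read by HTRF competition after 1 h room-temperature compound exposure of mouse TGR5-overexpressing HEK293-EBNA cells. Cells were suspended in serum-free DMEM containing 500 μM IBMX; compounds ran as 12-point half-log dilutions in duplicate; EC50 derived.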

SMILES	EC50 [1] [nM]	EC50 [2] [nM]
Cc1cnccc1-c1cccc([C@H](C)N(CCCCC(=O)NC[C@@H](O)[C@H](O)[C@@H](O)[C@@H](O)CO)S(=O)(=O)c2cccc(Cl)c2C)c1 [Compound 20AI, 5-(3-chloro-2-methyl-N-((S)-1-(3-(3-methylpyridin-4-yl)phenyl)ethyl)phenylsulfonamido)-N-((2R,3S,4S,5S)-2,3,4,5,6-pentahydroxyhexyl)pentanamide]	< 100	100 to 999
Cc1cnccc1-c1cccc([C@H](C)N(CCCC(=O)NCCS(N)(=O)=O)S(=O)(=O)c2cccc(Cl)c2C)c1 [Compound 20AJ, (S)-4-(3-chloro-2-methyl-N-(1-(3-(3-methylpyridin-4-yl)phenyl)ethyl)phenylsulfonamido)-N-(2-sulfamoylethyl)butanamide]	< 100	100 to 999
Cc1cnccc1-c1cccc([C@H](C)N(CCCC(=O)NC[C@@H](O)[C@H](O)[C@@H](O)[C@@H](O)CO)S(=O)(=O)c2cccc(Cl)c2C)c1 [Compound 20AK, 4-(3-chloro-2-methyl-N-((S)-1-(3-(3-methylpyridin-4-yl)phenyl)ethyl)phenylsulfonamido)-N-((2R,3S,4S,5S)-2,3,4,5,6-pentahydroxyhexyl)butanamide]	< 100	100 to 999
Cc1cnccc1-c1cccc([C@H](C)N(CCCC(=O)NCCCS(=O)(=O)O)S(=O)(=O)c2cccc(Cl)c2C)c1 [Compound 20AL, (S)-3-(4-(3-chloro-2-methyl-N-(1-(3-(3-methylpyridin-4-yl)phenyl)ethyl)phenylsulfonamido)butanamido)propane-1-sulfonic acid]	< 100	< 100
Cc1c(Cl)cccc1S(=O)(=O)N(CCCC(=O)NCCS(=O)(=O)O)C(C)(C)c1cccc(-c2ccncc2CO)c1 [Compound 20AO, 2-(4-(3-chloro-N-(2-(3-(3-(hydroxymethyl)pyridin-4-yl)phenyl)propan-2-yl)-2-methylphenylsulfonamido)butanamido)ethanesulfonic acid]	< 100	100 to 999
Cc1c(Cl)cccc1S(=O)(=O)N(CCCC(=O)NCCS(=O)(=O)O)[C@@H](C)c1cccc(-c2ccncc2CO)c1 [Compound 20AP, (S)-2-(4-(3-chloro-N-(1-(3-(3-(hydroxymethyl)pyridin-4-yl)phenyl)ethyl)-2-methylphenylsulfonamido)butanamido)ethanesulfonic acid]	100 to 999	100 to 999
Cc1cnccc1-c1cccc([C@H](C)N(CCCC(=O)NCCS(=O)(=O)O)S(=O)(=O)c2ccccc2C)c1 [Compound 20AQ, (S)-2-(4-(2-methyl-N-(1-(3-(3-methylpyridin-4-yl)phenyl)ethyl)phenylsulfonamido)butanamido)ethanesulfonic acid]	< 100	100 to 999
Cc1cnccc1-c1cccc([C@H](C)N(CCCCC(=O)NCCOCCN)S(=O)(=O)c2cccc(Cl)c2C)c1 [Compound 20AT, (S)-N-(2-(2-aminoethoxy)ethyl)-5-(3-chloro-2-methyl-N-(1-(3-(3-methylpyridin-4-yl)phenyl)ethyl)phenylsulfonamido)pentanamide]	< 100	100 to 999
Cc1cnccc1-c1cccc([C@H](C)N(CCCC(=O)NCCOCCOCCOCCC(=O)O)S(=O)(=O)c2cccc(Cl)c2C)c1 [Compound 20AU, (S)-3-((3-chloro-2-methylphenyl)sulfonyl)-2-(3-(3-methylpyridin-4-yl)phenyl)-7-oxo-11,14,17-trioxa-3,8-diazaicosan-20-oic acid]	< 100	100 to 999
Cc1cnccc1-c1cccc(C(C)(C)N(CCCC(=O)NCCNC(=O)OC(C)(C)C)S(=O)(=O)c2cccc(Cl)c2C)c1 [Compound 20AV, tert-butyl (2-(4-(3-chloro-2-methyl-N-(2-(3-(3-methylpyridin-4-yl)phenyl)propan-2-yl)phenylsulfonamido)butanamido)ethyl)carbamate]	< 100	100 to 999
Cc1cnccc1-c1cccc([C@H](C)N(CCCC(=O)NCCS(=O)(=O)NCC(=O)O)S(=O)(=O)c2ccccc2C)c1 [Compound 20AX, (S)-2-(4-(2-methyl-N-(1-(3-(3-methylpyridin-4-yl)phenyl)ethyl)phenylsulfonamido)butanamidoethylsulfonamido)acetate]	< 100	100 to 999
Cc1cnccc1-c1cccc([C@H](C)N(CCCC(N)=O)S(=O)(=O)c2cccc(Cl)c2C)c1 [Compound 20AY, (S)-4-(3-Chloro-2-methyl-N-(1-(3-(3-methylpyridin-4-yl)phenyl)ethyl)phenylsulfonamido)butanamide]	< 100	100 to 999
Cc1cnccc1-c1cccc(C(C)N(CCCC(=O)NCCSO)S(=O)(=O)c2ccccc2C(F)(F)F)c1 (stereo not shown) [Compound 20BC, N-(2-(hydroxythio)ethyl)-4-(N-(1-(3-(3-methylpyridin-4-yl)phenyl)ethyl)-2-(trifluoromethyl)phenylsulfonamido)butanamide]	< 100	100 to 999
Cc1cnccc1-c1cccc(C(C)N(CCCC(=O)NCCSO)S(=O)(=O)c2cccc(C(F)(F)F)c2)c1 (stereo not shown) [Compound 20BD, N-(2-(hydroxythio)ethyl)-4-(N-(1-(3-(3-methylpyridin-4-yl)phenyl)ethyl)-3-(trifluoromethyl)phenylsulfonamido)butanamide]	100 to 999	100 to 999
CCc1cnccc1-c1cccc([C@H](C)N(CCCC(=O)NCS(=O)(=O)O)S(=O)(=O)c2ccccc2C(F)(F)F)c1 [Compound 20BE, (S)-(4-(N-(1-(3-(3-ethylpyridin-4-yl)phenyl)ethyl)-2-(trifluoromethyl)phenylsulfonamido)butanamido)methanesulfonic acid]	< 100	< 100
Cc1cnccc1-c1cccc([C@H](C)N(CCCC(=O)NCCS(=O)(=O)NCCC(=O)O)S(=O)(=O)c2ccccc2C(F)(F)F)c1 [Compound 20BI]	< 100	< 100
Cc1cnccc1-c1cccc([C@H](C)N(CCCC(=O)NCCS(=O)(=O)NCC(=O)O)S(=O)(=O)c2ccccc2C(F)(F)F)c1 [Compound 20BJ]	< 100	< 100
Cc1c(Cl)cccc1S(=O)(=O)N(CCCC(=O)NCCS(=O)(=O)O)[C@@H](C)c1cccc(-c2ccnnc2)c1 [Compound 20BO, (S)-2-(4-(3-chloro-2-methyl-N-(1-(3-(pyridazin-4-yl)phenyl)ethyl)phenylsulfonamido)butanamido)ethanesulfonic acid]	100 to 999	> 30000
Cc1cnsc1-c1cccc([C@H](C)N(CCCC(=O)NCCS(=O)(=O)O)S(=O)(=O)c2cccc(Cl)c2C)c1 [Compound 20BP, (S)-2-(4-(3-chloro-2-methyl-N-(1-(3-(4-methylisothiazol-5-yl)phenyl)ethyl)phenylsulfonamido)butanamido)ethanesulfonic acid]	100 to 999	1000 to 30000
Cc1cnccc1-c1cccc([C@H](CCCC(=O)NCS(=O)(=O)O)NS(=O)(=O)c2ccccc2C(F)(F)F)c1 [Compound 20BR, (S)-(5-(3-(3-methylpyridin-4-yl)phenyl)-5-(2-(trifluoromethyl)phenylsulfonamido)pentanamido)methanesulfonic acid]	100 to 999	100 to 999
